MIC data for ten compounds are collected here from DBAASP.

Usually MIC stands for the smallest concentration in the dilution series that meets the test's criterion for growth inhibition. Low values mean inhibition by little substance, high ones a need for much substance.

Converted amounts (≈) assume the structure as drawn. “And” between values parts separate entries of the source, which are not always exact repeats. Equal entries are not always repeated.

Test systems include Bacillus subtilis 168 HT; Escherichia coli MG1655; Bacillus subtilis; Candida albicans SC5314.
Common to all, as to experiment: ≥ marks a high value that may be exact or a test limit, other limits are often not marked, values filed in µg/mL are converted to µM
Assay [1] relates to Candida albicans NCPF 1467.
For assay [2], the system named is Staphylococcus aureus NCTC 10788.
Assay [3] has as its system Escherichia coli NCTC 10418.
Assay [4] relates to Staphylococcus aureus ATCC 29213.
The test system of assay [5] is Pseudomonas aeruginosa ATCC 27853.
Assay [6] relates to Staphylococcus aureus ATCC 25923.
Assay [7] has as its system Klebsiella pneumoniae ATCC 13866.
Assay [8] relates to Staphylococcus epidermidis ATCC 12228.
Assay [9] has as its system Escherichia coli ATCC 35218.
Assay [10] concerns Staphylococcus aureus ATCC 33591.
Assay [11] deals with Escherichia coli ATCC 11229.
Assay [12] has as its system Bacillus subtilis KCTC 2217.
The subject of assay [13] is Acinetobacter baumannii KCTC 2508.
Assay [14] relates to Escherichia coli K12 MG1655.
For assay [15], the system named is Cutibacterium acnes JCM 6473.
In assay [16] the test system is Porphyromonas gingivalis ATCC 33277.
Assay [17] relates to Candida albicans NBRC 1385.
The test system of assay [18] is Streptococcus mutans JCM 5705.
Assay [19] deals with Escherichia coli ATCC 25922.
Assay [20] relates to Staphylococcus aureus ATCC 2592.

In the case of `CC[C@H](C)[C@H](NC(=O)[C@H](CC(C)C)NC(=O)[C@@H](N)CS)C(=O)N[C@@H](CCSC)C(=O)N[C@@H](CCCCN)C(=O)N[C@H](C(=O)N[C@@H](CCCN=C(N)N)C(=O)N[C@@H](CCCN=C(N)N)C(=O)N[C@@H](CCCCN)C(=O)N[C@@H](CCCCN)C(=O)O)C(C)C` [CLIMKVRRKK], the MIC against Bacillus subtilis 168 HT is 12.6 µM (≈ 16.1 µg/mL); with Escherichia coli MG1655, at least 100 µM.
As for `CC[C@H](C)[C@H](NC(=O)[C@H](C)NC(=O)[C@H](CC(N)=O)NC(=O)[C@@H]1CCCN1C(=O)[C@@H](NC(=O)[C@H](CC(C)C)NC(=O)[C@H](CO)NC(=O)[C@H](Cc1ccccc1)NC(=O)[C@H](CC(C)C)NC(=O)[C@@H](N)Cc1ccccc1)[C@@H](C)CC)C(=O)N[C@@H](CO)C(=O)NCC(=O)N[C@@H](CC(C)C)C(=O)N[C@@H](CC(C)C)C(=O)N[C@@H](CO)C(=O)N[C@@H](C)C(=O)N[C@@H](Cc1ccccc1)C(=O)N[C@H](C=O)CCCCN` [FLFSLIPNAISGLLSAFK], the MIC in assay [1] is 16 µM (≈ 30.8 µg/mL); in [2], 8 µM (≈ 15.4 µg/mL); in assay [3], at least 250 µM.
On to `CC[C@H](C)[C@H](NC(=O)[C@@H](NC(=O)[C@H](CO)NC(=O)CN)C(C)C)C(=O)N[C@@H](CCCN=C(N)N)C(=O)N[C@@H](C)C(=O)N[C@@H](CC(C)C)C(=O)N[C@@H](CCSC)C(=O)N[C@@H](CCCN=C(N)N)C(=O)N[C@@H](CCSC)C(=O)N[C@@H](Cc1ccccc1)C(=O)N[C@@H](C)C(=O)N[C@@H](CCCN=C(N)N)C(=O)N[C@@H](CC(C)C)C(=O)N[C@H](C(=O)NCC(=O)O)C(C)C` [GSVIRALMRMFARLVG], for which the MIC is 36 µM (≈ 64 µg/mL) in assay [4]; 4.5 µM (≈ 8 µg/mL) in [5]; 36 µM (≈ 64 µg/mL) in assay [6]; at least 36 µM in assay [7]; 4.5 µM (≈ 8 µg/mL) in assay [8]; at least 36 µM in assay [9]. Further, the MIC was 4.5 µM (≈ 8 µg/mL) in [10] and at least 36 µM in assay [11].
Take `CC(C)C[C@H](NC(=O)[C@H](CCCCN)NC(=O)[C@H](CCCCN)NC(=O)[C@H](CC(C)C)NC(=O)[C@H](CC(C)C)NC(=O)[C@H](CCCCN)NC(=O)[C@H](CCCCN)NC(=O)[C@H](CC(C)C)NC(=O)[C@H](CC(C)C)NC(=O)[C@@H]1CCCN1C(=O)[C@H](CCCCN)NC(=O)[C@H](CCCCN)NC(=O)[C@H](CC(C)C)NC(=O)[C@H](CC(C)C)NC(=O)[C@H](CCCCN)NC(=O)[C@@H](N)CCCCN)C(N)=O` [KKLLKKPLLKKLLKKL]: the MIC in assay [6] was 1.56 µM and > 0.78 µM; in assay [12] it was 1.56 µM (≈ 3.01 µg/mL); in assay [13] it was 3.13 µM (≈ 6.05 µg/mL).
`CC[C@H](C)[C@H](NC(=O)CNC(=O)[C@@H](NC(=O)[C@H](CCCCN)NC(=O)[C@H](C)NC(=O)[C@H](CC(C)C)NC(=O)[C@H](CS)NC(=O)[C@H](CCCCN)NC(=O)[C@H](Cc1c[nH]c2ccccc12)NC(=O)[C@@H](N)CCCCN)C(C)C)C(=O)N[C@@H](C)C(=O)N[C@@H](C)C(=O)N[C@@H](Cc1cnc[nH]1)C(=O)O` [KWKCLAKVGIAAH]: in [14], the minimal inhibitory concentration (MIC) was at least 89.8 µM.
Take `CC(C)C[C@H](NC(=O)[C@H](CCCCN)NC(=O)[C@H](CCCCN)NC(=O)[C@H](CC(C)C)NC(=O)[C@H](CC(C)C)NC(=O)[C@H](CCCCN)NC(=O)[C@H](CCCCN)NC(=O)[C@H](CC(C)C)NC(=O)[C@H](CC(C)C)NC(=O)[C@@H]1CCCN1C(=O)[C@H](CCCCN)NC(=O)[C@H](CCCCN)NC(=O)[C@H](CC(C)C)NC(=O)[C@@H](N)CC(C)C)C(N)=O` [LLKKPLLKKLLKKL]: the MIC in assay [6] was 1.56 µM and > 0.78 µM; in [12], 1.56 µM (≈ 2.61 µg/mL); in assay [13] it was 12.5 µM (≈ 20.9 µg/mL).
Take `CSCC[C@H](NC(=O)[C@H](CC(C)C)NC(=O)[C@H](CC(C)C)NC(=O)[C@H](CCCCN)NC(=O)[C@H](CCCN=C(N)N)NC(=O)[C@H](CCC(=O)O)NC(=O)[C@H](CC(C)C)NC(=O)[C@H](CC(C)C)NC(=O)[C@H](CO)NC(=O)[C@@H](N)CCSC)C(=O)N[C@@H](Cc1cnc[nH]1)C(=O)N[C@@H](Cc1ccccc1)C(=O)N[C@@H](CC(C)C)C(=O)N[C@@H](CCCN=C(N)N)C(=O)N[C@H](C(=O)O)C(C)C` [MSLLERKLLMHFLRV]: the MIC is 4.24 µM (≈ 8 µg/mL) in [5]; 8.48 µM (≈ 16 µg/mL) in assay [6]; at least 33.9 µM in assay [7]; 8.48 µM (≈ 16 µg/mL) in assay [8]; at least 67.9 µM in assay [9]; 8.48 µM (≈ 16 µg/mL) in assay [10]. In addition, in [11], the MIC was at least 33.9 µM.
`CC[C@H](C)[C@H](NC(=O)[C@@H](N)CCCN=C(N)N)C(=O)N[C@@H](CCCN=C(N)N)C(=O)N[C@@H](CC(C)C)C(=O)N[C@@H](CC(C)C)C(=O)N[C@@H](CCC(N)=O)C(=O)N[C@@H](CCCN=C(N)N)C(=O)N[C@@H](Cc1ccccc1)C(=O)N[C@@H](CC(N)=O)C(=O)N[C@@H](CCCCN)C(=O)N[C@@H](CCCN=C(N)N)C(=O)O` [RIRLLQRFNKR]: the MIC in assay [15] was at least 1020 µM; in assay [16], at least 256 µM; in assay [17], at least 512 µM; in [18], at least 1020 µM.
As to `C[C@@H](O)[C@H](NC(=O)[C@H](CCCCN)NC(=O)[C@H](CCCCN)NC(=O)[C@H](CO)NC(=O)[C@H](CCCN=C(N)N)NC(=O)[C@H](Cc1c[nH]c2ccccc12)NC(=O)[C@H](CCC(=O)O)NC(=O)[C@H](CCCN=C(N)N)NC(=O)[C@H](CO)NC(=O)[C@H](CCCCN)NC(=O)[C@@H](N)CCCN=C(N)N)C(=O)N[C@@H](CCC(N)=O)C(=O)N1CCC[C@H]1C(=O)N[C@@H](CCCN=C(N)N)C(=O)N[C@@H](CCCN=C(N)N)C(=O)N1CCC[C@H]1C(=O)N[C@@H](CCCN=C(N)N)C(=O)O` [RKSREWRSKKTQPRRPR], the minimal inhibitory concentration (MIC) in assay [15], in assay [16], in assay [17] and in [18] was at least 1020 µM throughout.
As for `CC(C)[C@H](N)C(=O)N[C@@H](CCCCN)C(=O)N[C@@H](CCCN=C(N)N)C(=O)N[C@@H](Cc1c[nH]c2ccccc12)C(=O)N[C@@H](CCCCN)C(=O)N[C@@H](CCCCN)C(=O)N[C@@H](Cc1c[nH]c2ccccc12)C(=O)N[C@@H](CCCCN)C(=O)N[C@@H](CCCN=C(N)N)C(=O)N[C@@H](CCCCN)C(=O)N[C@@H](Cc1c[nH]c2ccccc12)C(=O)N[C@@H](CCCCN)C(=O)N[C@@H](CCCCN)C(=O)N[C@@H](Cc1c[nH]c2ccccc12)C(=O)N[C@H](C(N)=O)C(C)C` [VKRWKKWKRKWKKWV], the MIC came out at 1.6 µM (≈ 3.47 µg/mL) in assay [19], 2.8 µM (≈ 6.08 µg/mL) against Bacillus subtilis, 2.8 µM (≈ 6.08 µg/mL) in [20] and 2.8 µM (≈ 6.08 µg/mL) in the assay on Candida albicans SC5314.
